Reference: US12594276B2, “Inhibitors of human immunodeficiency virus replication” (ViiV Healthcare UK (No.5) Limited, priority 2024, dated 2026)

How the values were obtained:
[1] = test system: recombinant NL4-3 virus (nef section replaced with Renilla luciferase gene) in MT-2 cells; assay: HIV cell culture assay (antiviral activity, luciferase readout); format: cell-based; conditions: Renilla, NL43, MT-2 cells infected for 4-5 days with recombinant NL4-3 Renilla luciferase virus
Method in brief: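 Compound activity was measured as reduction of luciferase in MT-2 cells infected for 4-5 days with serially diluted compound present. EC50 values were calculated with the median effect equation.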

[2] = Compound cytotoxicity, XTT-based colorimetric assay; format: cell-based; conditions: human; uninfected MT2 cells, day 4, XTT; read-out: CC50
Method in brief: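 Follows the antiviral assay procedure, but with uninfected MT2 cells. On day 4, cell viability is measured by XTT-based colorimetry, giving CC50 values.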

What does the source list for `Cc1cc(C2(F)CCC(F)(F)CC2)nc2nc([C@H](Cc3cc(F)cc(F)c3)NC(=O)Cn3nc(C(F)F)c4c3C(F)(F)[C@@H]3C[C@H]43)n(-c3ccc(Cl)c4c(NS(C)(=O)=O)nn(CCc5cccnc5)c34)c(=O)c12` (atropisomer, axis not shown; (P)) [Example 740, N-[(1S)-1-[(3P)-3-{4-chloro-3-methanesulfonamido-1-[2-(pyridin-3-yl)ethyl]-1H-indazol-7-yl}-5-methyl-4-oxo-7-(1,4,4-trifluorocyclohexyl)-3H,4H-pyrido[2,3-d]pyrimidin-2-yl]-2-(3,5-difluorophenyl)ethyl]-2-[(2S,4R)-9-(difluoromethyl)-5,5-difluoro-7,8-diazatricyclo[4.3.0.0^2,^4]nona-1(6),8-dien-7-yl]acetamide]?
EC50 [1]: 0.021 nM; CC50 at 4 days [2]: > 20 nM

For `Cc1cc(C2CCC(F)(F)CC2)nc2nc([C@H](Cc3cc(F)cc(F)c3)NC(=O)Cn3nc(C(F)F)c4c3C(F)(F)[C@@H]3C[C@H]43)n(-c3ccc(Cl)c4c(NS(C)(=O)=O)nn(CCN5C[C@@H]6C[C@H]5CC6(F)F)c34)c(=O)c12` (atropisomer, axis not shown; (P)) [Example 310, N-[(1S)-1-[(3P)-3-(4-chloro-1-{2-[(1S,4S)-5,5-difluoro-2-azabicyclo[2.2.1]heptan-2-yl]ethyl}-3-methanesulfonamido-1H-indazol-7-yl)-7-(4,4-difluorocyclohexyl)-5-methyl-4-oxo-3H,4H-pyrido[2,3-d]pyrimidin-2-yl]-2-(3,5-difluorophenyl)ethyl]-2-[(2S,4R)-9-(difluoromethyl)-5,5-difluoro-7,8-diazatricyclo[4.3.0.0^2,^4]nona-1(6),8-dien-7-yl]acetamide], which EC50 [1] is on record?
Its EC50 is 0.019 nM.

And the CC50 at 4 days [2]?
The CC50 at 4 days was > 50 nM.

What does the source list for `CC1(C)CN(CCn2nc(NS(C)(=O)=O)c3c(Cl)ccc(-n4c([C@H](Cc5cc(F)cc(F)c5)NC(=O)Cn5nc(C(F)F)c6c5C(F)(F)[C@@H]5C[C@H]65)nc5nc(C6CCC(F)(F)CC6)ccc5c4=O)c32)CC(C(F)(F)F)O1` (stereo partly drawn) [Example 189]?
EC50 [1]: 0.035 nM; CC50 at 4 days [2]: > 50 nM

With `COCCCn1nc(NS(C)(=O)=O)c2c(Cl)ccc(-n3c([C@H](Cc4cc(F)cc(F)c4)NC(=O)Cn4nc(C(F)F)c5c4C(F)(F)[C@@H]4C[C@H]54)nc4nc(C5CCC(F)(F)CC5)cc(NCC(C)(C)N5CCCCC5)c4c3=O)c21` (atropisomer, axis not shown; (P)) [Example 539, N-[(1S)-1-[(3P)-3-[4-chloro-3-methanesulfonamido-1-(3-methoxypropyl)-1H-indazol-7-yl]-7-(4,4-difluorocyclohexyl)-5-{[2-methyl-2-(piperidin-1-yl)propyl]amino}-4-oxo-3H,4H-pyrido[2,3-d]pyrimidin-2-yl]-2-(3,5-difluorophenyl)ethyl]-2-[(2S,4R)-9-(difluoromethyl)-5,5-difluoro-7,8-diazatricyclo[4.3.0.0^2,^4]nona-1(6),8-dien-7-yl]acetamide] as the molecule, how does the EC50 [1] read?
The EC50 was 0.006 nM.

And the CC50 at 4 days [2]?
The CC50 at 4 days was > 20 nM.

With `COCCCn1nc(NS(C)(=O)=O)c2c(Cl)ccc(-n3c([C@H](Cc4cc(F)cc(F)c4)NC(=O)Cn4nc(C(F)F)c5c4C(F)(F)[C@@H]4C[C@H]54)nc4nc(C5CCC(F)(F)CC5)cc(NCCc5ccccc5)c4c3=O)c21` (atropisomer, axis not shown; (P)) [Example 521, N-[(1S)-1-[(3P)-3-[4-chloro-3-methanesulfonamido-1-(3-methoxypropyl)-1H-indazol-7-yl]-7-(4,4-difluorocyclohexyl)-4-oxo-5-[(2-phenylethyl)amino]-3H,4H-pyrido[2,3-d]pyrimidin-2-yl]-2-(3,5-difluorophenyl)ethyl]-2-[(2S,4R)-9-(difluoromethyl)-5,5-difluoro-7,8-diazatricyclo[4.3.0.0^2,^4]nona-1(6),8-dien-7-yl]acetamide] as the molecule, how does the EC50 [1] read?
Its EC50 is 0.079 nM.

What about the CC50 at 4 days [2] of the same molecule?
Its CC50 at 4 days is > 20 nM.

For `CS(=O)(=O)Nc1nn(CCN2CCC(F)(F)CC2)c2c(-n3c([C@H](Cc4cc(F)cc(F)c4)NC(=O)Cn4nc(C5CC5)c5c4C[C@@H]4C[C@H]54)nc4nc(C5CCC(F)(F)CC5)c(F)cc4c3=O)ccc(Cl)c12` (atropisomer, axis not shown; (P)) [Example 239, N-[(1S)-1-[(3P)-3-{4-chloro-1-[2-(4,4-difluoropiperidin-1-yl)ethyl]-3-methanesulfonamido-1H-indazol-7-yl}-7-(4,4-difluorocyclohexyl)-6-fluoro-4-oxo-3H,4H-pyrido[2,3-d]pyrimidin-2-yl]-2-(3,5-difluorophenyl)ethyl]-2-[(2S,4S)-9-cyclopropyl-7,8-diazatricyclo[4.3.0.0^2,^4]nona-1(6),8-dien-7-yl]acetamide], which EC50 [1] is on record?
Its EC50 is 0.021 nM.

What about the CC50 at 4 days [2] of the same molecule?
The CC50 at 4 days was > 50 nM.

Which results are given for `COCc1cc(C2CCC(F)(F)CC2)nc2nc([C@H](Cc3cc(F)cc(F)c3)NC(=O)Cn3nc(C(F)F)c4c3C(F)(F)[C@@H]3C[C@H]43)n(-c3ccc(Cl)c4c(NS(C)(=O)=O)nn(CCN5CCC(F)(F)CC5)c34)c(=O)c12` (atropisomer, axis not shown; (P)) [Example 676, N-[(1S)-1-[(3P)-3-{4-chloro-1-[2-(4,4-difluoropiperidin-1-yl)ethyl]-3-methanesulfonamido-1H-indazol-7-yl}-7-(4,4-difluorocyclohexyl)-5-(methoxymethyl)-4-oxo-3H,4H-pyrido[2,3-d]pyrimidin-2-yl]-2-(3,5-difluorophenyl)ethyl]-2-[(2S,4R)-9-(difluoromethyl)-5,5-difluoro-7,8-diazatricyclo[4.3.0.0^2,^4]nona-1(6),8-dien-7-yl]acetamide]?
EC50 [1]: 0.011 nM; CC50 at 4 days [2]: > 20 nM

Which EC50 [1] does the source give for `CS(=O)(=O)Nc1nn(CCN2CCC(C(F)(F)F)C2)c2c(-n3c([C@H](Cc4cc(F)cc(F)c4)NC(=O)Cn4nc(C(F)F)c5c4C(F)(F)[C@@H]4C[C@H]54)nc4nc(C5CCC(F)(F)CC5)ccc4c3=O)ccc(Cl)c12` (stereo partly drawn) [Example 199, N-[(1S)-1-[(3P)-3-(4-chloro-3-methanesulfonamido-1-{2-[3-(trifluoromethyl)pyrrolidin-1-yl]ethyl}-1H-indazol-7-yl)-7-(4,4-difluorocyclohexyl)-4-oxo-3H,4H-pyrido[2,3-d]pyrimidin-2-yl]-2-(3,5-difluorophenyl)ethyl]-2-[(2S,4R)-9-(difluoromethyl)-5,5-difluoro-7,8-diazatricyclo[4.3.0.0^2,^4]nona-1(6),8-dien-7-yl]acetamide] here?
Its EC50 is 0.023 nM.

And the CC50 at 4 days [2]?
The CC50 at 4 days was > 50 nM.

With `COCCN(CCOC)C(=O)Cn1nc(NS(C)(=O)=O)c2c(Cl)ccc(-n3c([C@H](Cc4cc(F)cc(F)c4)NC(=O)Cn4nc(C(F)F)c5c4C(F)(F)[C@@H]4C[C@H]54)nc4nc(C5CCC(F)(F)CC5)cc(C)c4c3=O)c21` (atropisomer, axis not shown; (P)) [Example 401, 2-[(6P)-4-chloro-7-[7-(4,4-difluorocyclohexyl)-2-[(1S)-1-{2-[(2S,4R)-9-(difluoromethyl)-5,5-difluoro-7,8-diazatricyclo[4.3.0.02, 4]nona-1(6),8-dien-7-yl]acetamido}-2-(3,5-difluorophenyl)ethyl]-5-methyl-4-oxo-3H,4H-pyrido[2,3-d]pyrimidin-3-yl]-3-methanesulfonamido-1H-indazol-1-yl]-N,N-bis(2-methoxyethyl)acetamide] as the molecule, how does the EC50 [1] read?
The EC50 was 0.012 nM.

And the CC50 at 4 days [2]?
The CC50 at 4 days was > 20 nM.

Which results are given for `Cc1cc(C2CCC(F)(F)CC2)nc2nc([C@H](Cc3cc(F)cc(F)c3)NC(=O)Cn3nc(C(F)F)c4c3C(F)(F)[C@@H]3C[C@H]43)n(-c3ccc(Cl)c4c(NS(C)(=O)=O)nn(CCN5C[C@@H](C)O[C@@H](C)C5)c34)c(=O)c12` (atropisomer, axis not shown; (P)) [Example 159, N-[(1S)-1-[(3P)-3-(4-chloro-1-{2-[(2R,6S)-2,6-dimethylmorpholin-4-yl]ethyl}-3-methanesulfonamido-1H-indazol-7-yl)-7-(4,4-difluorocyclohexyl)-5-methyl-4-oxo-3H,4H-pyrido[2,3-d]pyrimidin-2-yl]-2-(3,5-difluorophenyl)ethyl]-2-[(2S,4R)-9-(difluoromethyl)-5,5-difluoro-7,8-diazatricyclo[4.3.0.0^2,4]nona-1(6),8-dien-7-yl]acetamide]?
EC50 [1]: 0.017 nM; CC50 at 4 days [2]: > 50 nM

With `C[C@@H]1CN(Cc2cc(C3CCC(F)(F)CC3)nc3nc([C@H](Cc4cc(F)cc(F)c4)NC(=O)Cn4nc(C(F)F)c5c4C(F)(F)[C@@H]4C[C@H]54)n(-c4ccc(Cl)c5c(NS(C)(=O)=O)nn(CCN6CCC(F)(F)CC6)c45)c(=O)c23)C[C@H](C)O1` (atropisomer, axis not shown; (P)) [Example 525, N-[(1S)-1-[(3P)-3-{4-chloro-1-[2-(4,4-difluoropiperidin-1-yl)ethyl]-3-methanesulfonamido-1H-indazol-7-yl}-7-(4,4-difluorocyclohexyl)-5-{[(2R,6S)-2,6-dimethylmorpholin-4-yl]methyl}-4-oxo-3H,4H-pyrido[2,3-d]pyrimidin-2-yl]-2-(3,5-difluorophenyl)ethyl]-2-[(2S,4R)-9-(difluoromethyl)-5,5-difluoro-7,8-diazatricyclo[4.3.0.0^2,^4]nona-1(6),8-dien-7-yl]acetamide] as the molecule, how does the EC50 [1] read?
Its EC50 is 0.016 nM.

And the CC50 at 4 days [2]?
The CC50 at 4 days was > 20 nM.

With `CS(=O)(=O)Nc1nn(CCN2CCC(F)CC2)c2c(-n3c([C@H](Cc4cc(F)cc(F)c4)NC(=O)Cn4nc(C(F)F)c5c4C(F)(F)[C@@H]4C[C@H]54)nc4nc(C5CCC(F)(F)CC5)ccc4c3=O)ccc(Cl)c12` (atropisomer, axis not shown; (P)) [Example 166, N-[(1S)-1-[(3P)-3-{4-chloro-1-[2-(4-fluoropiperidin-1-yl)ethyl]-3-methanesulfonamido-1H-indazol-7-yl}-7-(4,4-difluorocyclohexyl)-4-oxo-3H,4H-pyrido[2,3-d]pyrimidin-2-yl]-2-(3,5-difluorophenyl)ethyl]-2-[(2S,4R)-9-(difluoromethyl)-5,5-difluoro-7,8-diazatricyclo[4.3.0.0^2,^4]nona-1(6),8-dien-7-yl]acetamide] as the molecule, how does the EC50 [1] read?
The EC50 was 0.019 nM.

And the CC50 at 4 days [2]?
Its CC50 at 4 days is > 50 nM.
